Data reported in patent publication US11318077B2, “Retinaldehyde containing compositions and methods of use” (RODAN & FIELDS, LLC, priority 2017, dated 2022).

Columns and labels:
[1] = system: mild to moderate lines and wrinkles, dullness and moderate dyschromia; assay: Comparison grading from photos, IRS compared with 0.1% Adapalene; type: in vivo, human (women)
Method: (§1) Efficacy parameters: The assessments of efficacy were made using methods that would provide the Sponsor the most information on changes in the subject's skin over time. The methods that the Expert Grader used to assess efficacy are as follows: 1. Live Grading: Absolute scores from viewing the subject's face were assigned using a 0-9 scale. Live grades were conducted at each time point. 2. Baseline Aided Grading: Absolute scores from viewing the subject's face were assigned using a 0-9 scale at the Baseline visit and the Expert Grader used the subject's Baseline photo for reference at follow-up visits. Baseline aided grading was conducted at each time point other than at Baseline. 3. Comparison Grading from Photos: Comparison grading was performed after the conclusion of the study. The Expert Grader compared the photos from each time point to Baseline for improvement/worsening using the below scale: −4=Marked worsening, −3=Moderate worsening, −2=Mild worsening, −1=Barely perceptible worsening, −0.1=Forced choice worsening, 0=No change, 0.1=Forced choice improvement, 1=Barely perceptible improvement, 2=Mild improvement, 3=Moderate improvement, and 4=Marked improvement.
The following efficacy parameters were assessed by the Expert Grader along with the assessment method(s) are listed: 1. Skin Texture (softness/smoothness) [tactile]: Live grading, 2. Skin Texture [visual]: Live grading/Baseline aided, 3. Fine Lines (eye area including crow's feet): Live grading/Baseline aided/Comparison scores from photos, 4. […] Pinch recoil (under the eye): Live grading (For this assessment, a 0-9 score will not be assigned. Per the Sponsor, the evaluator will pinch the subject's skin at the designated site using the thumb and forefinger and hold the skin in place for approximately 2 seconds. A stopwatch will be started upon release and the time required for the subject's skin to return to its original conformation will be measured to the nearest tenth of a second. A decrease in pinch recoil times over time indicates an improvement in skin “bounce-back” or elasticity/resiliency.). […]

[2] = system: mild to moderate lines and wrinkles, dullness and moderate dyschromia; assay: Tolerability assessments (subjective and objective), IRS compared with 0.1% Adapalene, 12 weeks; type: in vivo, human (women); conditions: IRS vs 0.1% Adapalene
Description: (§2) The objective of the study is to evaluate and compare the anti-aging efficacy and tolerability of 0.1% Adapalene compared to Intensive Renewing Serum over a 12-week period when used by women with mild to moderate lines and wrinkles, dullness and moderate dyschromia.
Subjects reported to the facility at Baseline for Expert Grader assessments of various facial photoaging and irritation parameters, subjective assessments of facial irritation, digital imaging of the face, replica sampling of the crow's foot area, capacitance and firmness/elasticity measurements of the face and completed a self-assessment questionnaire. Subjects were randomized to receive 1 of 2 investigational products for treatment to the entire face for 12 weeks. Subjects returned to the lab at Week 2 and Week 4 to have Expert Grader assessments, digital imaging and self-assessments repeated. At Weeks 8 and 12, subjects returned for Expert Grader assessments, digital imaging, replica sampling, capacitance and firmness/elasticity measurements and self-assessments.
(§3) Expert Grader Assessments: In addition to screening and selecting the final panel, an Expert Grader assessed the face of each subject for various irritation and efficacy parameters at Baseline and after 2, 4, 8 and 12 weeks of treatment. The scale that was used for each assessment parameter (unless otherwise indicated) is: 0=none, 1-3=mild, 4-5=moderate, […].
Irritation parameters: The Expert Grader assessed the face of each subject at each time point for the following irritation parameters using a 0-9 scale: Erythema, Dryness, Scaling, and Edema. Using a 0-9 scale, subjects were asked to rate their amount of: Burning, Stinging, Itching, Tightness, and Dryness.
Treatment Procedures: approximately 20-25 subjects assigned to each product per randomization. After the Baseline assessments and measurements had been completed, the subjects reported to the Treatment Technician, who dispensed a new container of their assigned product to the subject and instructed the subject to apply the product according to the Sponsor's instructions below:
Product C: Morning instructions: Follow your regular morning skincare routine. Evening instructions: Product C should be used once daily in the evening, after your regular cleanser. Open a capsule by twisting off the tail end of one capsule. Apply the serum over your entire face, including under the eyes and crow's feet. […] Avoid getting into eyes, In case of inadvertent eye contact, rinse eyes with plenty of water to remove product from eyes. […] Use one capsule per night. Follow with the rest of your evening skin care Regimen. Note: make sure that no water gets into the jar and that your hands are dry before use. Please ensure the jar is tightly closed after each use.
Product N: Morning instructions: Follow your regular morning skincare routine. Evening instructions: Product N should be used once daily in the evening, after your regular cleanser. Clean the skin gently with your regular cleanser and pat dry before applying Product N. Cover the entire face, including under the eyes and crow's feet, with a thin layer. […] Avoid product contact with eyes, lips and mouth. If contact occurs, immediately flush the area with water. […] Wash hands after use. […] Follow with the rest of your evening skin care Regimen.

[3] = system: mild to moderate lines and wrinkles, dullness and moderate dyschromia; assay: Expert Grader clinical grading assessment of efficacy, IRS compared with 0.1% Adapalene; type: in vivo, human (women)
Description: as §2, §3, §1
The following efficacy parameters were assessed by the Expert Grader along with the assessment method(s) are listed: 1. Skin Texture (softness/smoothness) [tactile]: Live grading, 2. Skin Texture [visual]: Live grading/Baseline aided, 3. Fine Lines (eye area including crow's feet): Live grading/Baseline aided/Comparison scores from photos, 4. Wrinkles (eye area, including crows feet): Live grading, Baseline aided, Comparison scores from photos, 5. Pore appearance: Comparison scores from photos, 6. Firmness: Live grading, 7. Sagging (nasolabial fold area): Comparison scores from photos, 8. Discrete hyperpigmentation: Comparison scores from photos, 9. Mottled hyperpigmentation: Comparison scores from photos, 10. Skin tone evenness: Comparison scores from photos, 11. Radiance/luminosity/glow (defined as Dull to luminous/shiny): Live grading, 12. Sallowness (sallow to rosy): Live grading/Baseline aided, 13. Overall healthy skin appearance: Comparison scores from photos, 14. Overall photodamage: Live grading/Baseline aided, 15. Pinch recoil (under the eye): Live grading (For this assessment, a 0-9 score will not be assigned. Per the Sponsor, the evaluator will pinch the subject's skin at the designated site using the thumb and forefinger and hold the skin in place for approximately 2 seconds. A stopwatch will be started upon release and the time required for the subject's skin to return to its original conformation will be measured to the nearest tenth of a second. A decrease in pinch recoil times over time indicates an improvement in skin “bounce-back” or elasticity/resiliency.). […]

MelanoDerm tissues = assay: Cytotoxicity by microscopic observation of MelanoDerm tissues; type: cell-based; conditions: 2%; 2 weeks
Method: Tissues were equilibrated at 37° C. for 60 min. and undiluted samples (25 μl) of test materials were applied on top of tissues in duplicates. DMI and kojic acid were applied at 2.5% and 2% (w:v) respectively (dissolved in double distilled water). Tissue culture was pursued in the pigmentation-inducing medium […]-113 for 14 days, with reapplication of test materials and changes of tissue culture media every 2-3 days. Results and Discussion: From the macroscopic documentation of all the MelanoDerm tissues at the end of the experiment, differences of color are clearly visible between the solvent controls and some test materials. Table 34 informs whether cytotoxicity may have played a role in these differences. Table 34 also reports the non-invasive MelanoDerm color measurement performed with portable spectrophotometer. [table]

[4] = system: melanin production in MelanoDerm™ skin substitute; assay: Melanin-modulatory effect in MelanoDerm skin substitutes (color measurement, melanin extraction); type: cell-based; conditions: 2%; 2 weeks
Method: Objective: The objective of this assay was to determine the ability of the test materials (dimethylisosorbide [DMI], retinoic acid [ATRA], 10% w/w NEAR-1 in dimethylisosorbide [NEAR-1], Niacinamide PC [NAD], and Kojic Acid [KA]) and combinations thereof to inhibit melanin production in MelanoDerm™ skin substitute model. The effect of these experimental conditions on the secretion of the proinflammatory cytokine IL-8 was also assessed, as a surrogate for skin irritation potential.
Tissues were equilibrated at 37° C. for 60 min. and undiluted samples (25 μl) of test materials were applied on top of tissues in duplicates. DMI and kojic acid were applied at 2.5% and 2% (w:v) respectively (dissolved in double distilled water). Tissue culture was pursued in the pigmentation-inducing medium EPI-100-NMM-113 for 14 days, with reapplication of test materials and changes of tissue culture media every 2-3 days.
At the end of the experiment, tissue pigmentation was quantified non-invasively with NS800 portable spectrophotometer (3NH Technology Co., Ltd., China). This instrument is a reflectance spectrophotometer that measures reflected light in the visible spectrum (range: 400-700 nm) recording colors in a three-dimensional space known as CIEL*a*b* color space. In this project, the L* value representing the lightness of the color was used for color assessment. For the purpose of this experiment, the range of the L* parameter spanned from 17.8 (black background) to 87.8 (white background).
For melanin quantification, the MelanoDerms were frozen, solubilized in Solvable™ (Perkin Elmer) and melanin was extracted at 95° C. overnight. The colorimetric signals proportional to the concentration of extracted melanin, as well as those proportional to the IL-8 in the tissue-conditioned medium in the ELISA test were quantified with Molecular Devices microplate spectrophotometer MAX190 at 490 nm and 405 nm.

SMILES | Photo comparison mean scores (overall) ([1]; IRS vs 0.1% Adapalene) | Discrete Hyperpigmentation, photo comparison ([1]; over 12 weeks) | Mottled Hyperpigmentation, photo comparison ([1]; over 12 weeks) | Burning (subjective) [2] | Dryness (objective, clinical) [2] | Erythema (objective, clinical) [2] | Scaling (objective, clinical) [2] | Stinging (subjective) [2] | Dryness/Tightness (subjective) ([2]; most notably at Week 4) | Elasticity/Resiliency, clinical grading ([3]; by weeks 8 & 12) | Skin Texture (Visual), clinical grading ([3]; by weeks 8 & 12) | Fine Lines, clinical grading ([3]; comparable first 4 weeks, mild improvements by week 8, course to week 12) | Radiance/Luminosity/Glow, clinical grading ([3]; over 12 weeks) | Skin Texture (Tactile), clinical grading ([3]; over 12 weeks) | Cytotoxicity (MelanoDerm tissues) | Color measurement (whitening units) [4] [whitening units] | Melanin Content [4] [µg/mL] | Melanin Content (% control) [4] [% control] | Raw *L values [4]
COc1ccc(-c2ccc3cc(C(=O)O)ccc3c2)cc1C12CC3CC(CC(C3)C1)C2 [Adapalene, adapalene] | mean scores slightly favored Adapalene | slightly better results | progressive & slightly better result | somewhat greater degree of perceived burning | greater degree of tactile dryness | somewhat greater degree of erythema | greater degree of visual scaling | somewhat greater degree of perceived stinging | slightly greater perception of dryness/tightness | No improvement | slight improvement | remains constant | Mild improvement persists through week 8 | By week 12, no improvement | – | – | – | – | –
O=c1cc(CO)occ1O [KA, Kojic Acid] | – | – | – | – | – | – | – | – | – | – | – | – | – | – | Yes | 9.8 | 38 | 38 | 55.3
